From patent US10344026B2, “Compositions and methods of targeting mutant K-ras” (NANTBIO, INC., priority 2017, dated 2019) come the findings set out here.

Holding throughout (assay type): cell-based
In assay [1] the test system is phospho-Akt in Panc1 (G12D). As to the kind of experiment: In-Cell Western phospho-Akt, Panc1. The conditions noted are these: Homo sapiens, PANC-1, 1 h; Panc1, one hour treatment; read-out: In-Cell Western Panc1 (G12D) Akt (P). As for the experimental part:
(§1) In-cell phosphorylation assays for Erk and Akt were performed on several of the compounds and exemplary results are shown in Table 3 below using HCC827 and A375 cell lines for wild type K-Ras and Panc1 and Panc10.05 cell lines for G12D K-Ras mutants. Results are expressed in μM and corresponding structures are shown in FIGS. 2A-2G and Examples 1-152, above.
(§2) Cells are seeded in complete medium into black sided, clear-bottom 384-well microplates at 3000 cells/[…]/well. Plates are returned to 37° C. CO2 incubator for 18 hr. Drug is made as 200× in DMSO and diluted into medium to 10×. To each well is added 4 ul 10× test article or controls, and plates are returned to the incubator. Final assay DMSO concentration is 0.5%. After one hour, cells are fixed in formaldehyde, rinsed & permeabilized with triton X-100, and blocked with BSA/Goat serum blocking solution. Primary phospho-Akt and phospho-ERK antibodies are added and plates are incubated overnight at 4° C. Plates are rinsed with Tween-20 wash buffer and secondary antibody (Goat anti-rabbit, Thermofisher) is added. After 2 hours, plates are rinsed in Tween-20 wash buffer, and then PBS. Plates are imaged on the Celigo (Nexcelom) and cellular fluorescence is quantitated. Full inhibition of phospho-Akt is achieved with 1 uM BEZ235 (Sellekchem), while full inhibition of phospho-ERK is achieved with 1 uM MEK Inhibitor II Calbiochem). EC50 values are calculated using Graphpad Prism.

Assay [2] has as its system HCT116-G31D. As to the kind of experiment: Viability assay (CellTiterBlue, 72 hr) HCT116. The conditions noted are these: Homo sapiens, HCT-116, GI50, CellTiterBlue, HCT116 K-Ras G13D, read-out: 72 hr Cell Viability HCT116 (G13D). In outline: (§3)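 Fluorescence at Ex550/Em590, read 3 hr after CellTiterBlue addition, served as the viability signal following 72 hr compound treatment. Wells held 1000 cells, pre-incubated 18 hr at 37 °C, with 0.5% DMSO final. GI50 derived with DMSO as 100% and 100 uM tamoxifen as 0% viability.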
In general terms: The colour change of resazurin is a common sign of viable cells or microbes.

In assay [3] the test system is Panc1-G12D. Description: Viability assay (CellTiterBlue, 72 hr) Panc1. The conditions noted are these: Homo sapiens, PANC-1, GI50, CellTiterBlue, Panc1 K-Ras G12D, read-out: 72 hr Cell Viability Panc1 (G12D). In outline: as §3
For assay [4], the system named is Ishikawa (K-Ras wild type cell line). Description: Viability assay (CellTiterBlue, 72 hr) Ishikawa. The conditions noted are these: Homo sapiens, GI50, CellTiterBlue, Ishikawa K-Ras wild-type. In outline: as §3
Assay [5] has as its target T1, wild type K-Ras (Homo sapiens, UniProt P01116).
T1 construct: expressed in transfected cells; host or cells: 293H cells
Description: G-LISA Ras activation, 293H cells transfected with Ras wild-type, EGF stimulated. The following applies: compound 1 hour, then 100 ng/ml EGF 2 minutes. The procedure: (§4) 293H cells were seeded in 6-wells at 0.6×10^6 cells per well and transfected next day with 5 μg of Ras wild-type, or G12C, G12D or G12V mutant DNA plasmid vector using transfection reagent Lipofectamine 3000. Next day cells were treated with 3.125-25 μM of Ras compounds for 1 hour. Wild-type transfected cells were subsequently treated with 100 ng/ml EGF for 2 minutes. Cells were washed once in ice-cold PBS, lysed in complete lysis buffer on ice, and processed by G-LISA according to Cytoskeleton protocol.

Assay [6] relates to phospho-ERK in Panc10.05 (G12D). Description: In-Cell Western phospho-ERK, Panc10.05. The following applies: Homo sapiens, Panc1005, 1 h; Panc10.05, one hour treatment; read-out: In-Cell Western Panc10.05 (G12D) Erk (P). As for the experimental part:
as §1, §2

In assay [7] the test system is U87-MG (K-Ras wild type cell line). Description: Viability assay (CellTiterBlue, 72 hr) U87-MG. The conditions noted are these: Homo sapiens, U-87 MG, GI50, CellTiterBlue, U87-MG K-Ras wild-type. In outline:
as §3

Assay [8] relates to phospho-ERK in Panc1 (G12D). As to the kind of experiment: In-Cell Western phospho-ERK, Panc1. The following applies: Homo sapiens, PANC-1, 1 h; Panc1, one hour treatment; read-out: In-Cell Western Panc1 (G12D) Erk (P). As for the experimental part:
as §1, §2

Assay [9] has as its target T2, K-Ras G12D (Homo sapiens, UniProt P01116, G12D).
T2 construct: expressed in transfected cells; host or cells: 293H cells
Description: G-LISA Ras activation, 293H cells transfected with G12D mutant. The following applies: compound 1 hour. As for the experimental part:
as §4

For assay [10], the system named is Panc10.05-G12D. As to the kind of experiment: Viability assay (CellTiterBlue, 72 hr) Panc10.05. The conditions noted are these: Homo sapiens, Panc1005, GI50, CellTiterBlue, Panc10.05 K-Ras G12D, read-out: 72 hr Cell Viability Panc10.05 (G12D). In outline:
as §3

The test system of assay [11] is phospho-Akt in Panc10.05 (G12D). As to the kind of experiment: In-Cell Western phospho-Akt, Panc10.05. The conditions noted are these: Homo sapiens, Panc1005, 1 h; Panc10.05, one hour treatment; read-out: In-Cell Western Panc10.05 (G12D) Akt (P). The procedure:
as §1, §2

The subject of assay [12] is HCC827 (K-Ras wild type cell line). Description: Viability assay (CellTiterBlue, 72 hr) HCC827. The following applies: Homo sapiens, GI50, CellTiterBlue, HCC827 K-Ras wild-type. In outline:
as §3

T2 sequence (P01116 whole entry G12D): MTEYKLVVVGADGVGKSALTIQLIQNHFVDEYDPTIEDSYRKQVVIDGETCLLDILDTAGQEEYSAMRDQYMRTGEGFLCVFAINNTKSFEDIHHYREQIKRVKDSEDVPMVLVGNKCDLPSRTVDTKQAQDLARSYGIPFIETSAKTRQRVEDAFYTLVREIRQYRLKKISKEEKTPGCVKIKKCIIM
T1 sequence (P01116 whole entry): as the sequence (P01116 whole entry G12D) above, with D12G counted along it

Take `Cc1nc(C)c(C(=O)Nc2nc(-c3ccc4c(c3)CCC(=O)N4CC3CCCCC3)cs2)o1` [Compound 62, N-(4-(1-(cyclohexylmethyl)-2-oxo-1,2,3,4-tetrahydroquinolin-6-yl)thiazol-2-yl)-2,4-dimethyloxazole-5-carboxamide]: the EC50 stood at 6 µM in [1], 6 µM in assay [6] and 2 µM in [8]. The IC50 in assay [2] is 4 µM; in assay [3], 5 µM; in [4], 3 µM; in assay [5], above 25 µM; in assay [7], 3 µM; in assay [9], 21.7 µM. For the same compound, in assay [10], the IC50 came out at 2 µM.

As for `Cc1nc(C)c(C(=O)Nc2nc(-c3ccc4c(c3)CCC(=O)N4Cc3ccccc3)cs2)o1` [Compound 60, N-(4-(1-benzyl-2-oxo-1,2,3,4-tetrahydroquinolin-6-yl)thiazol-2-yl)-2,4-dimethyloxazole-5-carboxamide], the EC50 stood at 6 µM in assay [1], 3 µM in assay [6] and 4 µM in [8]. Also, the IC50 in assay [2] was found to be 7 µM; in [3], 2 µM; in assay [4], 6 µM; in [5], 8.6 µM; in [7], 14 µM; in [9] it was 7.4 µM. Besides, the IC50 in assay [10] was 13 µM.

In the case of `Cc1nc(C2CC2)oc1C(=O)Nc1nc(-c2ccc3c(c2)CCC(=O)N3CCc2ccccc2)cs1` [Compound 61, 2-cyclopropyl-4-methyl-N-(4-(2-oxo-1-phenethyl-1,2,3,4-tetrahydroquinolin-6-yl)thiazol-2-yl)oxazole-5-carboxamide], the figures for the EC50 in assay [1], in [6] and in assay [8] were 2 µM, 2 µM and 0.528 µM, respectively. The IC50 is 3 µM in [2]; 1.6 µM in assay [3]; 2.1 µM in assay [4]; 8.5 µM in assay [5]; 1.3 µM in assay [7]; 5.1 µM in assay [9]. The IC50 in [10] stood at 0.87 µM.

As for `Cc1nn(C)cc1C(=O)Nc1nc(-c2ccc3c(c2)CCC(=O)N3)cs1` [Compound 21, 1,3-dimethyl-N-(4-(2-oxo-1,2,3,4-tetrahydroquinolin-6-yl)thiazol-2-yl)-1H-pyrazole-4-carboxamide], the EC50 is 8 µM in assay [11], 12 µM in [1], above 25 µM in assay [6] and above 25 µM in assay [8]. The IC50 came to 10 µM in assay [2]; 2 µM in assay [3]; 5 µM in assay [4]; 17.1 µM in assay [5]; 6 µM in [12]; 3.8 µM in [9]. Besides, the IC50 in assay [10] turned out to be 0.797 µM.

Regarding `Cc1nc(C(C)C)sc1C(=O)Nc1nc(-c2ccc3c(c2)CCC(=O)N3)cs1` [Compound 3, 2-isopropyl-4-methyl-N-(4-(2-oxo-1,2,3,4-tetrahydroquinolin-6-yl)thiazol-2-yl)thiazole-5-carboxamide], the EC50 in assay [11] worked out at 8 µM; in assay [1] it was 9 µM; in assay [6] it was 3 µM; in [8] it was 2 µM. Moreover, the IC50 in [2] was 18 µM; in assay [3] it was 5.5 µM; in assay [4], above 25 µM; in [5], 12 µM; in [7], 12 µM; in assay [10], 14 µM.

As to `Cc1nc(CNC(=O)OC(C)(C)C)sc1C(=O)Nc1nc(-c2ccc3c(c2)CCC(=O)N3)cs1` [Compound 143, tert-butyl ((4-methyl-5-((4-(2-oxo-1,2,3,4-tetrahydroquinolin-6-yl)thiazol-2-yl)carbamoyl)thiazol-2-yl)methyl)carbamate], the EC50 in assay [11] worked out at 12 µM; in assay [1] it was 14 µM; in assay [6] it was 8 µM; in [8] it was 8 µM. Moreover, the IC50 is above 25 µM in assay [2]; 7 µM in assay [3]; above 25 µM in assay [4]; 19 µM in [5]; 9 µM in [7]; 4 µM in assay [10].

For the compound `Cc1nc(C2CCCC2)sc1C(=O)Nc1nc(-c2ccc3c(c2)CCC(=O)N3)cs1` [Compound 145, 2-cyclopentyl-4-methyl-N-(4-(2-oxo-1,2,3,4-tetrahydroquinolin-6-yl)thiazol-2-yl)thiazole-5-carboxamide], the EC50 in [11] was 17 µM; in [1], 18 µM; in assay [6], 7 µM; in [8], 5 µM. In addition, the IC50 was above 25 µM in assay [2]; 11 µM in assay [3]; above 25 µM in [4]; above 25 µM in [5]; 16 µM in [7]; 24 µM in assay [9]. For the same compound, the IC50 in assay [10] stood at 7 µM.

As for `Cc1nc(C2CCOC2)oc1C(=O)Nc1nc(-c2ccc3c(c2)CCC(=O)N3)cs1` (stereo not drawn) [Compound 10, 4-methyl-N-(4-(2-oxo-1,2,3,4-tetrahydroquinolin-6-yl)thiazol-2-yl)-2-(tetrahydrofuran-3-yl)oxazole-5-carboxamide], the IC50 in assay [2] is 5 µM; in assay [3], 4 µM; in [4] it was 2 µM; in assay [5], above 25 µM; in assay [7] it was 5 µM; in assay [12], 23 µM. The IC50 in assay [9] came out at 22 µM; in assay [10], 2 µM.

Consider `CCc1nc(C)c(C(=O)Nc2nc(-c3ccc4c(c3)CCC(=O)N4Cc3ccccc3)cs2)o1` [Compound 59, N-(4-(1-benzyl-2-oxo-1,2,3,4-tetrahydroquinolin-6-yl)thiazol-2-yl)-2-ethyl-4-methyloxazole-5-carboxamide], for which the EC50 is 6 µM in assay [1], 3 µM in assay [6] and 3 µM in assay [8]. The IC50 in [2] stood at 6 µM; in [3] it was 2 µM; in assay [4], 4 µM; in assay [5], 6.5 µM; in assay [7], 10 µM; in assay [9] it was 5.8 µM. The IC50 in [10] came out at 11 µM.

In the case of `CCc1nc(C)c(C(=O)Nc2nc(-c3ccc4c(c3)CCC(=O)N4)cs2)o1` [Compound 5, 2-ethyl-4-methyl-N-(4-(2-oxo-1,2,3,4-tetrahydroquinolin-6-yl)thiazol-2-yl)oxazole-5-carboxamide], the EC50 in assay [11] turned out to be 8 µM; in assay [1], 13 µM. Further, the IC50 was 22 µM in assay [2]; 6 µM in assay [3]; above 25 µM in [4]; 14.1 µM in assay [5]; above 25 µM in [7]; 10.2 µM in assay [9]. Moreover, in [10], the IC50 turned out to be 19 µM.
